Consider 2 molecules from US7465740B2, “2-heteroaryl-pyrazolo-[4,3-e]-1,2,4-triazolo-[1,5-c]-pyrimidine adenosine A2a receptor antagonists” (Schering Corporation, priority 2005, dated 2008).

Each structure is given as a SMILES string.

One may read the Ki as a measure of affinity in units of concentration, obtained from inhibition or displacement. A high value points to lower affinity.

The target in test [1] is T1, Human A2a Adenosine Receptor (Homo sapiens, UniProt P29274).
T1 construct: purchased Receptor Biology, Inc., Beltsville, Md; RB-HA2a
T1 sequence (P29274 whole entry): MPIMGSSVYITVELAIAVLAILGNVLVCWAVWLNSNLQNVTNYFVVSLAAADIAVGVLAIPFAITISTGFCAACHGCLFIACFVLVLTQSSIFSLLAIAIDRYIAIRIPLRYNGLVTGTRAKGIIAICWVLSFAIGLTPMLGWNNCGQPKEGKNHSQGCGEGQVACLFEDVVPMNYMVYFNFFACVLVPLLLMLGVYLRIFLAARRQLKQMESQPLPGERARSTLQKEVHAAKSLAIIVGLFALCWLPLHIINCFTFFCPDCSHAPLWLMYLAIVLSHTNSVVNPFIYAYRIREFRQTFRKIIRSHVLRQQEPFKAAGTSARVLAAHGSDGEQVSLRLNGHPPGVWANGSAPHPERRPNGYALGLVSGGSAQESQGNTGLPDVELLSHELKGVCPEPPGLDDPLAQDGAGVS
Nature of the test: Human adenosine A2a receptor competition binding assay. As to conditions: [3H]-SCH 58261 displacement, human A2a membranes. The method, then: (§1) Human Adenosine A2a and A1 Receitor Competition Binding Assay Protocol Membrane Sources:
A2a: Human A2a Adenosine Receptor membranes, Catalog #RB-HA2a, Receptor Biology, Inc., Beltsville, Md. Dilute to 17 μg/100 μl in membrane dilution buffer (see below).
(§2) Membrane dilution buffer: Dulbecco's Phosphate Buffered Saline (Gibco/BRL)+10 mM MgCl2.
(§3) Compound Dilution Buffer: Dulbecco's Phosphate Buffered Saline (Gibco/BRL)+10 mM MgCl2 supplemented with 1.6 mg/ml methyl cellulose and 16% DMSO. Prepared fresh daily.
A2a: [3H]-SCH 58261, custom synthesis, AmershamPharmacia Biotech, Piscataway, N.J. Stock is prepared at 1 nM in membrane dilution buffer. Final assay concentration is 0.5 nM.
A2a: To determine non-specific binding, add 100 nM CGS 15923 (RBI, Natick, Mass.). Working stock is prepared at 400 nM in compound dilution buffer.
(§4) Prepare 1 mM stock solutions of compounds in 100% DMSO. Dilute in compound dilution buffer. Test at 10 concentrations ranging from 3 μM to 30 pM. Prepare working solutions at 4× final concentration in compound dilution buffer.
Perform assays in deep well 96 well plates. Total assay volume is 200 μl. Add 50 μl compound dilution buffer (total ligand binding) or 50 μl CGS 15923 working solution (A2a non-specific binding) or 50 μl NECA working solution (A1 non-specific binding) or 50 μl of drug working solution. Add 50 μl ligand stock ([3H]-SCH 58261 for A2a, [3H]-DPCPX for A1). […]

The next test has as its target T2, A1 receptor (Homo sapiens, UniProt P30542).
T2 sequence (P30542 1-326): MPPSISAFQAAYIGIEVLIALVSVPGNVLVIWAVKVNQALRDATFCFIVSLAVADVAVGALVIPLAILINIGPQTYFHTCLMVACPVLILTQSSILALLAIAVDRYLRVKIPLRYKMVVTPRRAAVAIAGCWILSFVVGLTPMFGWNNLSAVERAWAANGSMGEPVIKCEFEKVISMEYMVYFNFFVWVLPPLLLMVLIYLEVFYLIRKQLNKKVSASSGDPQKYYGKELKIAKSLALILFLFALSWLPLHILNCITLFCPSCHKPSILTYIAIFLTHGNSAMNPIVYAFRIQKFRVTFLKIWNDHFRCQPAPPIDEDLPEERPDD
Nature of the test: Human adenosine A1 receptor competition binding assay (for selectivity). As to conditions: A1/A2a Ki ratio. The method, then: as §1, §2, §3
A1: [3H]-DPCPX, Amersham Pharmacia Biotech, Piscataway, N.J. Stock is prepared at 2 nM in membrane dilution buffer. Final assay concentration is 1 nM.
A1: To determine non-specific binding, add 100 μM NECA (RBI, Natick, Mass.). Working stock is prepared at 400 μM in compound dilution buffer.
as §4
Perform assays in deep well 96 well plates. Total assay volume is 200 μl. Add 50 μl compound dilution buffer (total ligand binding) or 50 μl CGS 15923 working solution (A2a non-specific binding) or 50 μl NECA working solution (A1 non-specific binding) or 50 μl of drug working solution. Add 50 μl ligand stock ([3H]-SCH 58261 for A2a, [3H]-DPCPX for A1). Add 100 μl of diluted membranes containing the appropriate receptor. Mix. Incubate at room temperature for 90 minutes. […]
Selectivity is determined by dividing Ki for A1 receptor by Ki for A2a receptor. […]

In the case of `Cc1nc(-c2ccc(F)c(N3CCN(CCn4ncc5c4nc(N)n4nc(-c6cnccn6)nc54)CC3)c2)co1` [Example 1], the affinity in test [1] corresponds to a Ki of 0.2 nM.
On to `Cc1nccnc1-c1nc2c3cnn(CCN4CCN(c5cc(-c6ncco6)ccc5F)CC4)c3nc(N)n2n1` [Example 2-28], for which the “selectivity (Ki for A1 receptor divided by Ki for A2a receptor)” value at A1 receptor is “above 9000”.
